Reference: US9139532B2, “Pyrazolyl guanidine F1F0-atpase inhibitors and therapeutic uses thereof” (Lycera Corporation, priority 2010, dated 2015)
pEC50, pIC50: −log10 of the molar value. Like-named read-outs stand apart in the source and are kept apart here.

Key:
[1] = target: T1, F1F0-ATPase (Bos taurus, UniProt P13621); test: Inhibition of F1F0-ATPase activity in synthesizing ATP; type: biochemical; details: inhibition of ATP synthesis by F1F0-ATPase; read-out: ATP Syn IC50
T1 construct: from tissue

[2] = tested on: Ramos cells; test: Cytotoxicity in Ramos cells; type: cell-based; details: cytotoxicity in Ramos cells, read-out: Ramos Cell EC50

| Structure (SMILES) | pIC50 [1] | pEC50 [2] | pEC50 ([2]; Homo sapiens) |
| --- | --- | --- | --- |
| Cc1ccc(-c2cc(N/C(=N\C(=O)c3ccc(F)c(F)c3)Nc3cc(F)cc(Cl)c3)n[nH]2)cc1F [Compound A-126] | < 5.00 | < 5.00 |  |
| CC(C)(C)c1n[nH]c(N/C(=N\C(=O)c2ccc(C(F)(F)F)cc2)Nc2ccc(F)cc2Cl)c1F [Compound A-336] | > 5.00 | > 5.00 |  |
| O=C(/N=C(/Nc1cc(C(F)(F)F)n[nH]1)NC1CCCC1)c1ccc(C(F)(F)F)cc1 [Compound A-92] | > 5.00 |  | > 5.00 |
| C[C@H](N/C(=N\C(=O)c1ccc(C(F)(F)F)cc1)Nc1cc(C(F)(F)F)n[nH]1)C1CCCCC1 [Compound A-94] | > 5.00 |  | > 5.00 |
| CC(N/C(=N/C(=O)c1ccc(Cl)cc1)Nc1cc(C(F)(F)F)[nH]n1)c1cccc(Cl)c1 (stereo not shown) [Compound A-35] | > 5.00 |  | > 5.00 |
| CC(C)N/C(=N/C(=O)c1ccc(F)cc1)Nc1cc(-c2cc(F)cc(F)c2)n[nH]1 [Compound A-245] | > 5.00 | > 5.00 |  |
| CC(C)NC(=NC(=O)c1ccc(Cl)c(F)c1)Nc1cc(-c2ccc(Cl)cc2)n[nH]1 [Compound A-383] | > 5.00 |  | > 5.00 |
| CC1(C)Cn2nc(-c3ccc(F)cc3)cc2N/C(=N\C(=O)c2ccc(F)cc2)N1 [Compound A-568, (Z)-4-fluoro-N-(8-(4-fluorophenyl)-4,4-dimethyl-4,5-dihydro-1H-pyrazolo[1,5-a][1,3,5]triazepin-2(3H)-ylidene)benzamide] | > 5.00 |  | > 5.00 |
